Data on 6 molecules can be found in patent publication US7425614B2, “Neuroprotective therapeutics preventing ERK/MAPK activation through the NMDA receptor” (Children's Medical Center Corporation, priority 2003, dated 2008).

Where two headings read alike, the source gives them in different places.

One test concerns NMDA receptor. The test is described as follows: whole-cell recordings of NMDAR-mediated currents in cultured hippocampal neurons. The class given is cell-based, rat.
The subject of the next test is NMDA receptors. The following applies: cited from earlier work.
For a further test, the system named is ERK. The test is described as follows: phospho-ERK immunocytochemistry in cultured hippocampal neurons. The class given is cell-based, rat. On the procedure: Neurons from 18 day rat embryos were dissociated using trypsin and plated on coverslips coated with poly-L-ysine in minimal essential medium (MEM) with 10% NU serum (BD Biosciences, Le Pont de Claix, France) at densities of 30,000 cells/cm^2 as described (Brewer, G. J. (1995) J. Neurosci. Res. 42, 674-683). On days 7 and 11 of culture incubation, half of the medium was changed to MEM with 2% B27 supplement (Invitrogen).
Cells were transfected with cDNA for EGFP fusion proteins (LipofectAMINE 2000; Invitrogen) or by pseudoviral infection using a Sindbis expression system (Invitrogen). Neurons were incubated with cDNA and LipofectAMINE for 2 hr, rinsed, and incubated with culture media (MEM with 2% of B27 supplement) 17 hr prior to the experiment. For viral delivery, neuronal cultures were incubated 30 min with pseudoviral constructs diluted 200-500× in culture media. Cultures were rinsed and incubated in media for 15 hr. 0.1% to 1.5% of neurons were fluorescent after expressing LipofectAMINE-delivered constructs while Sindbis infection yielded 1%-10% transfection efficiency. Most of the experiments were performed on 12-14 days in vitro (div) cultures unless otherwise indicated.
Three hours before stimulation, TTX (1 μM), CNQX (40 μM), APV (100 μM), and nimodipine (5 μM) were added to neurons. For stimulation, coverslips with neurons were transferred into the following solutions.
(1) 100 μM NMDA, 10 μM glycine, 1 μM TTX, 40 μM CNQX, 5 μM nimodipine dissolved in culture media and incubated for 3 min. […]
After stimulation, neurons were fixed with 4% formaldehyde and labeled with rabbit anti-phospho-p44/42 ERK antibody (Cell Signaling) and with mouse anti-MAP2 antibody (Sternberger Monoclonals). Cy3-conjugated goat anti-rabbit IgG and Cy5-conjugated goat antimouse IgG (Jackson Immunoresearch Laboratories, West Grove, Pa.) were secondary antibodies. NMDA and all antagonists were from Tocris Neuramin. BDNF was from Calbiochem. Images were acquired with an Olympus Fluoview-500 confocal microscope (40×; 1.0 NA) and quantified using Olympus Fluoview software. In each experiment, the pERK fluorescence of the cell soma was measured for 25 neurons taken from consecutive fields. Phospho-ERK fluorescence data were normalized to the values obtained in nontransfected cells after NMDA stimulation. The background fluorescence (mean fluorescence of nonstimulated neurons) was subtracted prior to normalization.

The target of another test is T1, NR2A (Rattus norvegicus, UniProt Q00959).
T1 construct: host or cells: heterologous expression systems (not specified)
T1 sequence (Q00959 23-1464): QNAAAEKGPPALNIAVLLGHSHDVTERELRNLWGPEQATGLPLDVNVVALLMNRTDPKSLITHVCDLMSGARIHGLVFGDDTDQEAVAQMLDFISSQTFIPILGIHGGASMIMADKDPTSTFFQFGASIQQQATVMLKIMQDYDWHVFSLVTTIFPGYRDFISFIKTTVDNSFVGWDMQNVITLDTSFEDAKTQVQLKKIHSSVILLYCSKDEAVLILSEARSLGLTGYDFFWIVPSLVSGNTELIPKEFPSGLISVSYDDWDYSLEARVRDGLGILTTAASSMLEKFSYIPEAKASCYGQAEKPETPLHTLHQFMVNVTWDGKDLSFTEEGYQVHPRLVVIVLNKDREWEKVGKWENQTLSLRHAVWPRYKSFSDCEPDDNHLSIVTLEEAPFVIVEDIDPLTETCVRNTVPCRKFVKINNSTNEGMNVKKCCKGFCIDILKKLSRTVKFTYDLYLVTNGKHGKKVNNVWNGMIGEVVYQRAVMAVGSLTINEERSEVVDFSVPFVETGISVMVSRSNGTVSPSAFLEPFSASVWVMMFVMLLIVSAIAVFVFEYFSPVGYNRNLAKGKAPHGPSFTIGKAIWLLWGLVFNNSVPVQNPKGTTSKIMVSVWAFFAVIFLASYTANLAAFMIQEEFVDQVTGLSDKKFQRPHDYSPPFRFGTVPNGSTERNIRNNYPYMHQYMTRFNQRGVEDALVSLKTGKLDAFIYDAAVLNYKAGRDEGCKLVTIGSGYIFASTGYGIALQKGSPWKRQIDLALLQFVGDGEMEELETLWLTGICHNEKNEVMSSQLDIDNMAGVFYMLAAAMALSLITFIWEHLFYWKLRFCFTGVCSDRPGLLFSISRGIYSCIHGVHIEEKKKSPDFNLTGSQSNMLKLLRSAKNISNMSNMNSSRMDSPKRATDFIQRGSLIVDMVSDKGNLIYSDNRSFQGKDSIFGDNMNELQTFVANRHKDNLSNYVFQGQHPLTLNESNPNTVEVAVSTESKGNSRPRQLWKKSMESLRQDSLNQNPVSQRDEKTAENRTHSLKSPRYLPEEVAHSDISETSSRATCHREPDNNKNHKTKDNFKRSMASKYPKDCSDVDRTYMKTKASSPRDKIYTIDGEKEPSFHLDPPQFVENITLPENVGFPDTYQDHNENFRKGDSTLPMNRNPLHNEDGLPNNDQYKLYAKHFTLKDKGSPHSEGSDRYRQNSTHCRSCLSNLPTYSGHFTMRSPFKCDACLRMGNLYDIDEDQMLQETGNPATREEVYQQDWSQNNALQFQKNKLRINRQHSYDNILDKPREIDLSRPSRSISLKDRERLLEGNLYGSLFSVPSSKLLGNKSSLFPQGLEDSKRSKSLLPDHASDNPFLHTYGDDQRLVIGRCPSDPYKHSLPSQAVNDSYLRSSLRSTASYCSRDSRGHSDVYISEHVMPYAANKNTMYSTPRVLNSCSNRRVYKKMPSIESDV
The following applies: 3 μM; heterologous expression systems; cited from earlier work.

The next test has as its target T2, NR2B (Rattus norvegicus, UniProt P35439+Q00960).
T2 construct: host or cells: heterologous expression systems (not specified)
The note with it: 3 μM; heterologous expression systems; cited from earlier work.

The test system of test [1] is CREB transcription factor. The test is described as follows: phosphorylation of CREB in cultured hippocampal neurons. It counts as cell-based, rat. The note with it: control experiments.
The subject of another test is SynGAP. The test is described as follows: phosphorylation of SynGAP in cultured hippocampal neurons. The note with it: control experiments. It counts as cell-based, rat.
The target in the next test is T3, full-length NR2B (Rattus norvegicus, UniProt Q00960).
T3 construct: In vitro translated full-length NR2B and HA-tagged RasGRF1 fragments were co-immunoprecipitated with anti-HA antibody; made in house; host or cells: cell-free in vitro translation (35S-labelled)
T3 sequence (Q00960 27-1482 E1256K/V1430S/T1431A): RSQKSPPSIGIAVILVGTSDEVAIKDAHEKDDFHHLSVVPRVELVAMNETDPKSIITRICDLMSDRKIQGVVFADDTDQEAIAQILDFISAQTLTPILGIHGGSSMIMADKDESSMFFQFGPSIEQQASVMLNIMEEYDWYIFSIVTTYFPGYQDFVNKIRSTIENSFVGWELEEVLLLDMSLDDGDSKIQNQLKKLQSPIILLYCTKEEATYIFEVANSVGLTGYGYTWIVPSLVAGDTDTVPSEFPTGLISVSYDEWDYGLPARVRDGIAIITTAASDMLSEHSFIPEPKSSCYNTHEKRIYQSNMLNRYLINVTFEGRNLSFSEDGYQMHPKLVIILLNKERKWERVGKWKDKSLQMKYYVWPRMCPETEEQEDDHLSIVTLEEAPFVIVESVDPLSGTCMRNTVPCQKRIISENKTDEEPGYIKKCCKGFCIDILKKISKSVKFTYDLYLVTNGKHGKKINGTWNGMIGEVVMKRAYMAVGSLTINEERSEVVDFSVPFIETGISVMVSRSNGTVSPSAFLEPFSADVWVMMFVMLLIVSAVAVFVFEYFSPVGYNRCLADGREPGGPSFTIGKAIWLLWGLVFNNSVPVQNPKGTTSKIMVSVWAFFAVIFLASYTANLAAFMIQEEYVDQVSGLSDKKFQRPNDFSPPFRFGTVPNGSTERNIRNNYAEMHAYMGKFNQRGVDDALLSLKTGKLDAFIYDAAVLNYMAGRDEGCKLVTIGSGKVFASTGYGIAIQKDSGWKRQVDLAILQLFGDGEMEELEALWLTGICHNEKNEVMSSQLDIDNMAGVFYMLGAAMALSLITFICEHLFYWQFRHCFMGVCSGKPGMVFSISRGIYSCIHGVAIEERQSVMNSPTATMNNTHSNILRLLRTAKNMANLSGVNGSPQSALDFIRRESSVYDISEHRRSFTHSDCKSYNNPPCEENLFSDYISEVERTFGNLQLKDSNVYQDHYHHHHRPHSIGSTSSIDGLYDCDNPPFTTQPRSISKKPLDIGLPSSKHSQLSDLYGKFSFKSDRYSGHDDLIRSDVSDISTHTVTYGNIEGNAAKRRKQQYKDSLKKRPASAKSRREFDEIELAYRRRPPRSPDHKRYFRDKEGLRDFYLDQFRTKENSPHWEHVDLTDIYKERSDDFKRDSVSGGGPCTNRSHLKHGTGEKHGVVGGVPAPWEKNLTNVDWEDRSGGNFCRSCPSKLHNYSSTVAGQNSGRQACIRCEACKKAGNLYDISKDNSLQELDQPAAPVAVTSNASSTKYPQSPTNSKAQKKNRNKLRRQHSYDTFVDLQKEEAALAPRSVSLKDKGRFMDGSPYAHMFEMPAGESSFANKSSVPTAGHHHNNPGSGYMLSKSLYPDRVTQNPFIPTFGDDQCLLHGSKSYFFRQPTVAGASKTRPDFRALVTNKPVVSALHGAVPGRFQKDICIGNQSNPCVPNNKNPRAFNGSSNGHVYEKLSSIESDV
Description: in vitro binding of in vitro translated HA-tagged RasGRF1 fragments to full-length NR2B (co-immunoprecipitation). The following applies: epitope-tagged RasGRF1 fragments. An excerpt:
For in vitro translation, fragments of rat NR2B and rat RasGRF1 were made by PCR with 5′-primers containing AU1- and HA-tag encoding sequences; amplified sequences were subcloned into pcDNA3.1. For 293T transfection, the following cDNAs were used: mouse RasGRF1 in pcDNA3, GFP-rat NR2B, GFP rat NR2A in pcDNA1.1, and rat NR1 in pEGFP-C1 (Clontech). EGFP fusion constructs were made by subcloning cDNA fragments encoding different portions of NR2B and RasGRF1 into pEGFP-C1 (Clontech). EGFP fusion constructs were transferred from pEGFP into pSinRep5 and used for preparation of the Sindbis pseudovirus gene transfer system according to the manufacturer's protocol (Invitrogen, Carlsbad, Calif.).
For in vitro binding experiments, equimolar amounts of in vitro translated ^35S-labeled proteins (calculated from radioactivity of the excised protein band and cysteine content in the specific fragment) were incubated with a 3-fold molar excess of translated RasGRF1 for 30 min at 30° C., diluted with RIPA buffer, and immunoprecipitated with anti-HA-agarose (Santa Cruz). In competition experiments, RasGRF1 and NR2B were immunoprecipitated for 2 hr at 4° C. from solubilized rat brain microsomes in the presence of 10 μM NusA, 10 μM NusA-RasGRF1-BD, or 5 μM NusA-NR2B-BD.

T2 sequence (Q00960 27-1482, other chains not shown): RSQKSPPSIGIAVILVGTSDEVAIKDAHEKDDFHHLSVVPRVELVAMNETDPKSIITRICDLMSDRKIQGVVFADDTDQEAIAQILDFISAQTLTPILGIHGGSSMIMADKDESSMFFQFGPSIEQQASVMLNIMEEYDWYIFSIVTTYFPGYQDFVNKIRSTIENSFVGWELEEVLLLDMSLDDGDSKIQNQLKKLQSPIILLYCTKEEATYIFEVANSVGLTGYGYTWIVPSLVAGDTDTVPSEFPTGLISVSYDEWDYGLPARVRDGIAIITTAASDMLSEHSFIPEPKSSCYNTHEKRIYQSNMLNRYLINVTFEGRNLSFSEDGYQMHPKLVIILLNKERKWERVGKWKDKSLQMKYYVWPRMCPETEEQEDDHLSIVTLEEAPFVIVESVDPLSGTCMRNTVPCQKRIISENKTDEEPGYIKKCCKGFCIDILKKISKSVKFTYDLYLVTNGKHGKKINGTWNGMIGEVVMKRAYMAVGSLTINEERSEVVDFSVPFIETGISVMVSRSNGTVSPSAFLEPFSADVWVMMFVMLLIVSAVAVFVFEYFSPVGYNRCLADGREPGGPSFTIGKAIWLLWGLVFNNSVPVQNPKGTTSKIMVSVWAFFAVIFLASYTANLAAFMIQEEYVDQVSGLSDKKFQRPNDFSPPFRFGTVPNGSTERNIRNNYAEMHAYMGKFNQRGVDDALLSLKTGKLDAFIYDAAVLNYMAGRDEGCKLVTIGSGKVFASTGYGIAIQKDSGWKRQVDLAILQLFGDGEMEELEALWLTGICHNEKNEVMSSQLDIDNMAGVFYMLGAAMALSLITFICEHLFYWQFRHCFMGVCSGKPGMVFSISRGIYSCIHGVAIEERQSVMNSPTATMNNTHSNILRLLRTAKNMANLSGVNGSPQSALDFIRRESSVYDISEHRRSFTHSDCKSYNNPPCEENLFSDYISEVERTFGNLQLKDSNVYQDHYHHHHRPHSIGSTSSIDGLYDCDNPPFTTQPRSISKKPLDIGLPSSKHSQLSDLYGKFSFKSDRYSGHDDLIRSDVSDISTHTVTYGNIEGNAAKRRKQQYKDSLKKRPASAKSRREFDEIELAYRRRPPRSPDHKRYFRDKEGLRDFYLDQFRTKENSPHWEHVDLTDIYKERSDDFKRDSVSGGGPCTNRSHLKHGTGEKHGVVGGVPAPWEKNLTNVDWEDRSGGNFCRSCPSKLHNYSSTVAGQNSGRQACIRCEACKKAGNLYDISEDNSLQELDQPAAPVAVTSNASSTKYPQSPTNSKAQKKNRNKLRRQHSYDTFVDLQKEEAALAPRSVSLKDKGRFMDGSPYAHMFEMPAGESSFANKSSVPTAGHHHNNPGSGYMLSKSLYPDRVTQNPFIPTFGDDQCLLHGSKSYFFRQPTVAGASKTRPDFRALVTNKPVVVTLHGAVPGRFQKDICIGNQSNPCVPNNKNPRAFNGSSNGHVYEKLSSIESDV

Turning to `CC(C(O)c1ccc(O)cc1)N1CCC(Cc2ccccc2)CC1` (stereo not drawn) [ifenprodil], in the test on NMDA receptor, the “decrease of the portion of the ifenprodil-sensitive NMDA current with days in culture” value is listed as approximately 25%, the “frequency of spontaneous NMDAR EPSCs” value is “significantly reduced” and the “suppression of NMDAR current” value amounted to 60%. Also, the “inhibition of NMDA-mediated current” value in the test with NMDA receptors (3-week-old cultures) is 20%-30. The “inhibition of NMDA-mediated current” value with NMDA receptors (young neuronal cultures) is approximately 70%. In addition, in the test on ERK (Rattus norvegicus, Hippocampal neuron, 3 μM, hippocampal neurons 8 div, read-out: inhibition of NMDAR activated ERK), the inhibition at 3 µM is 70%. In the test with ERK (during neuron maturation), the “degree of ifenprodil-sensitive ERK activation with days in culture” value is reported as “did not change significantly”. On NR2A, the “effect on NR2A-mediated current” value is listed as “has no effect”. Besides, the “inhibition of NR2B-mediated current” value at NR2B is “up to 80%”.
Take `COc1ccc(S(=O)(=O)N(CCO)c2ccccc2CN(C)C/C=C/c2ccc(Cl)cc2)cc1` [KN-93]: the “phosphorylation of CREB” value in test [1] is on record as “effectively suppressed”. Moreover, the “NMDA-dependent ERK activation” value in the test on ERK (5 μM in the incubation media) is listed as “had no effect”. Besides, in the test with ERK (cultured hippocampal neurons, 10 μM bicuculline), the “bicuculline-induced ERK activation” value is “altered neither”. Moreover, the “NMDA-induced (NMDAR-dependent) ERK activation” value in the test with ERK (cultured hippocampal neurons, 100 μM NMDA) is recorded as “altered neither”. Besides, the “phosphorylation of SynGAP” value with SynGAP is listed as “effectively suppressed”.

B1: RasGRF1 amino acids 835-913: shorter peptide of the RasGRF1-specific sequence (protein, UniProt Q13972 835-913, looked up, fragment)
chain: EVSMREESDIDQNQSDDGDTETSPTKSPTTPKSVKNKNSSEFPLFSYNNGVVMTSCRELDNNRSALSAASAFAIATAGA
Take B1: the “binding to NR2B in vitro” value with full-length NR2B is given as “did not bind”.

B2: RasGRF1 amino acids 714-1244: C-terminal prey-containing sequence of RasGRF1 (protein, UniProt Q13972 714-1244, looked up, fragment)
chain: FASGQNNKLLYGEPPKSPRATRKFSSPPPLSITKTSSPSRRRKLSLNIPIITGGKALDLAALSCNSNGYTSMYSAMSPFSKATLDTSKLYVSSSFTNKIPDEGDTTPEKPEDPSALSKQSSEVSMREESDIDQNQSDDGDTETSPTKSPTTPKSVKNKNSSEFPLFSYNNGVVMTSCRELDNNRSALSAASAFAIATAGANEGTPNKEKYRRMSLASAGFPPDQRNGDKEFVIRRAATNRVLNVLRHWVSKHSQDFETNDELKCKVIGFLEEVMHDPELLTQERKAAANIIRTLTQEDPGDNQITLEEITQMAEGVKAEPFENHSALEIAEQLTLLDHLVFKKIPYEEFFGQGWMKLEKNERTPYIMKTTKHFNDISNLIASEIIRNEDINARVSAIEKWVAVADICRCLHNYNAVLEITSSMNRSAIFRLKKTWLKVSKQTKALIDKLQKLVSSEGRFKNLREALKNCDPPCVPYLGMYLTDLAFIEEGTPNYTEDGLVNFSKMRMISHIIREIRQFQQTAYKIEHQAKV
As for B2, the “binding to NR2B in vitro” value with full-length NR2B was “bound”.

B3: RasGRF1 amino acids 1-720: N-terminal portion of RasGRF1, which contains multiple functional domains (protein, UniProt Q13972 1-720, looked up, fragment)
chain: MQKGIRLNDGHVASLGLLARKDGTRKGYLSKRSSDNTKWQTKWFALLQNLLFYFESDSSSRPSGLYLLEGCVCDRAPSPKPALSAKEPLEKQHYFTVNFSHENQKALELRTEDAKDCDEWVAAIAHASYRTLATEHEALMQKYLHLLQIVETEKTVAKQLRQQIEDGEIEIERLKAEITSLLKDNERIQSTQTVAPNDEDSDIKKIKKVQSFLRGWLCRRKWKTIIQDYIRSPHADSMRKRNQVVFSMLEAEAEYVQQLHILVNNFLRPLRMAASSKKPPITHDDVSSIFLNSETIMFLHQIFYQGLKARISSWPTLVLADLFDILLPMLNIYQEFVRNHQYSLQILAHCKQNRDFDKLLKHYEAKPDCEERTLETFLTYPMFQIPRYILTLHELLAHTPHEHVERNSLDYAKSKLEELSRIMHDEVSETENIRKNLAIERMIIEGCEILLDTSQTFVRQGSLIQVPMSEKGKITRGRLGSLSLKKEGERQCFLFSKHLIICTRGSGGKLHLTKNGVISLIDCTLLEEPESTEEEAKGSGQDIDHLDFKIGVEPKDSPPFTVILVASSRQEKAAWTSDISQCVDNIRCNGLMMNAFEENSKVTVPQMIKRTREGTREAEMSRSDASLYCDDVDIRFSKTMNSCKVLQIRYASVERLLERLTDLRFLSIDFLNTFLHSYRVFTTAIVVLDKLITIYKKPISAIPARWLRSLELLFASGQNN
In the case of B3, the “binding to NR2B in vitro” value in the test with full-length NR2B is on record as “did not bind”.

B4: RasGRF1 amino acids 714-841: shorter peptide of the RasGRF1-specific sequence (protein, UniProt Q13972 714-841, looked up, fragment)
chain: FASGQNNKLLYGEPPKSPRATRKFSSPPPLSITKTSSPSRRRKLSLNIPIITGGKALDLAALSCNSNGYTSMYSAMSPFSKATLDTSKLYVSSSFTNKIPDEGDTTPEKPEDPSALSKQSSEVSMREE
Turning to B4, the “binding to NR2B in vitro” value with full-length NR2B is “did not bind”.
